“And” between values parts separate entries of the source, which are not always exact repeats. Identical values can stand only once.
Assay: xn = mol fraction of the nth substance listed

CCCCCCCCO + NCCO
viscosity [mPa·s], 101.3 kPa
Settings	x2 = 0.1	x2 = 0.2	x2 = 0.3	x2 = 0.4	x2 = 0.5	x2 = 0.6	x2 = 0.7	x2 = 0.8	x2 = 0.9
303.15 K	6.48	6.8	7.36	8.14	9.01	9.97	11	12.1	13.4
313.15 K	4.68	4.93	5.28	5.77	6.27	6.83	7.48	8.16	8.98
323.15 K	3.49	3.68	3.92	4.23	4.55	4.9	5.34	5.79	6.29

BrC(Br)Br + Nc1ccccc1
298.15 K, 101 kPa
Settings	viscosity [mPa·s]
x1 = 0.1402	3.373
x1 = 0.2067	3.235
x1 = 0.3151	3.026
x1 = 0.4133	2.856
x1 = 0.5137	2.657
x1 = 0.614	2.486
x1 = 0.701	2.349
x1 = 0.808	2.196

BrC(Br)Br + Nc1ccccc1Cl
viscosity [mPa·s], 101 kPa
Settings	x1 = 0.1006	x1 = 0.1969	x1 = 0.3023	x1 = 0.3984	x1 = 0.5023	x1 = 0.5997	x1 = 0.6951	x1 = 0.8013	x1 = 0.8983
298.15 K	2.948	2.901	2.784	2.699	2.585	2.453	2.342	2.208	2.096
303.15 K	2.693	2.616	2.509	2.425	2.326	2.244	2.15	2.045	1.955
308.15 K	2.378	2.33	2.267	2.197	2.122	2.065	1.981	1.896	1.82
313.15 K	2.122	2.102	2.062	1.995	1.96	1.896	1.831	1.764	1.697

C[C@@H](O)[C@H](N)C(=O)O + O
101 kPa
Settings	viscosity [mPa·s]
293.15 K, x1 = 0.001804	1.036
293.15 K, x1 = 0.0107	1.226
298.15 K, x1 = 8.95e-05	0.9002
298.15 K, x1 = 0.0001801	0.9048
298.15 K, x1 = 0.001819	0.9278
298.15 K, x1 = 0.003526	0.9547
298.15 K, x1 = 0.005296	0.9865
298.15 K, x1 = 0.007341	1.02
298.15 K, x1 = 0.008519	1.047
298.15 K, x1 = 0.01104	1.075
298.15 K, x1 = 0.01269	1.105
298.15 K, x1 = 0.01399	1.136
303.15 K, x1 = 0.007153	0.904
303.15 K, x1 = 0.01245	0.9968
305.15 K, x1 = 0.00036	0.788
305.15 K, x1 = 0.0007203	0.7937
305.15 K, x1 = 0.00108	0.7998
305.15 K, x1 = 0.001439	0.8055
305.15 K, x1 = 0.001798	0.8106
305.15 K, x1 = 0.002157	0.8163
308.15 K, x1 = 8.95e-05	0.7885
308.15 K, x1 = 0.0001801	0.7945
308.15 K, x1 = 0.001819	0.8025
308.15 K, x1 = 0.003526	0.8241
308.15 K, x1 = 0.005296	0.8417
308.15 K, x1 = 0.007341	0.8612
308.15 K, x1 = 0.008519	0.8741
308.15 K, x1 = 0.01104	0.9001
308.15 K, x1 = 0.01269	0.9289
308.15 K, x1 = 0.01399	0.9456
310.15 K, x1 = 0.00036	0.707
310.15 K, x1 = 0.0007203	0.7122
310.15 K, x1 = 0.00108	0.7174
310.15 K, x1 = 0.001439	0.7223
310.15 K, x1 = 0.001798	0.7263
310.15 K, x1 = 0.002157	0.7313
313.15 K, x1 = 0.008929	0.758
313.15 K, x1 = 0.0107	0.7828
313.15 K, x1 = 0.01245	0.8054
315.15 K, x1 = 0.00036	0.6527
315.15 K, x1 = 0.0007203	0.6576
315.15 K, x1 = 0.00108	0.6612
315.15 K, x1 = 0.001439	0.6656
315.15 K, x1 = 0.001798	0.6694
315.15 K, x1 = 0.002157	0.6737
318.15 K, x1 = 8.95e-05	0.6814
318.15 K, x1 = 0.0001801	0.6945
318.15 K, x1 = 0.001819	0.7042
318.15 K, x1 = 0.003526	0.7214
318.15 K, x1 = 0.005296	0.7356
318.15 K, x1 = 0.007341	0.7565
318.15 K, x1 = 0.008519	0.7645
318.15 K, x1 = 0.01104	0.7898
318.15 K, x1 = 0.01269	0.8045
318.15 K, x1 = 0.01399	0.8214
323.15 K, x1 = 0.00359	0.5782
323.15 K, x1 = 0.007153	0.6118

NCCOCCO + O
viscosity [mPa·s], 101.33 kPa
Settings	298.15 K	313.15 K	323.15 K
x1 = 0.0552	2.4	1.452	1.16
x1 = 0.1002	3.874	2.419	1.857
x1 = 0.1447	6.344	3.715	2.737
x1 = 0.2249	11.4	6.182	4.438
x1 = 0.2997	16.21	8.343	5.773
x1 = 0.3995	21.35	10.7	7.293
x1 = 0.5392	25.2	12.28	8.273
x1 = 0.6075	26.8	13.19	8.903
x1 = 0.7021	27.72	13.65	9.182
x1 = 0.8071	27.7	13.76	9.315
x1 = 0.9024	27.4	13.65	9.257

O=C([O-])CC(O)(CC(=O)[O-])C(=O)[O-].[NH4+].[NH4+].[NH4+] + O
viscosity, 101 kPa
Settings	298.15 K	308.15 K	318.15 K
x1 = 0.004	0.9957 mPa·s	0.814 mPa·s	0.685 mPa·s
x1 = 0.007	1.13 mPa·s	0.923 mPa·s	0.7741 mPa·s
x1 = 0.01	1.283 mPa·s and 1.49 mPa·s	1.048 mPa·s and 1.211 mPa·s	0.8784 mPa·s and 1.01 mPa·s

O=S(=O)([N-]S(=O)(=O)C(F)(F)F)C(F)(F)F.OCCNCCO.[Li+] + O
viscosity [mPa·s], 101 kPa
Settings	313.15 K	318.15 K	323.15 K
x1 = 0.03	2.3	1.83	1.52
x1 = 0.0601	4.57	3.78	3.28
x1 = 0.0999	13.16	10.06	7.95
x1 = 0.1922	61.51	40.94	28.08
x1 = 0.2941	156.6	98.53	65.24
x1 = 0.4028	299.2	187.7	123.7
x1 = 0.4989	451.2	285	192.2
x1 = 0.5999	629.9	408.1	281.1
x1 = 0.7015	835.5	557.5	393.6
x1 = 0.803	1078	736.7	530
x1 = 0.9011	1370	952.3	694.7

O=S(=O)([O-])c1ccccc1.[Na+] + O
viscosity [mPa·s], 101 kPa
Settings	x1 = 9e-05	x1 = 0.00018	x1 = 0.0009	x1 = 0.0018	x1 = 0.00448	x1 = 0.00893	x1 = 0.0133	x1 = 0.0177
298.15 K	0.898	0.899	0.915	0.932	0.98	1.073	1.17	1.273
318.15 K	0.598	0.599	0.609	0.619	0.648	0.705	0.762	0.825

O=[N+]([O-])[O-].O=[N+]([O-])[O-].[Cd+2] + O
viscosity [mPa·s], 101.3 kPa
Settings	x1 = 0.0009	x1 = 0.0018	x1 = 0.00893	x1 = 0.0177	x1 = 0.02631	x1 = 0.03478	x1 = 0.05127	x1 = 0.06722	x1 = 0.08263
293.15 K	1.02	1.036	1.166	1.363	1.607	1.912	2.746	3.964	5.664
298.15 K	0.9069	0.9215	1.041	1.219	1.437	1.708	2.443	3.496	4.949
303.15 K	0.8129	0.8263	0.936	1.097	1.293	1.537	2.189	3.11	4.364
308.15 K	0.7336	0.7459	0.8471	0.994	1.171	1.391	1.975	2.789	3.882
313.15 K	0.6664	0.678	0.7712	0.9059	1.067	1.267	1.792	2.521	3.48
318.15 K	0.6085	0.6193	0.7057	0.8296	0.977	1.16	1.637	2.288	3.143
323.15 K	0.5582	0.568	0.6484	0.7627	0.8979	1.066	1.502	2.093	2.855

[Cl-].[Rb+] + O
310.15 K, 101 kPa
Settings	viscosity [mPa·s]
x1 = 0.000184	0.6947
x1 = 0.000842	0.6943
x1 = 0.002695	0.6937
x1 = 0.003302	0.6937
x1 = 0.003679	0.6938
x1 = 0.005197	0.6944
x1 = 0.005988	0.695

CC(C)(C)N + O=C1CCCCC1
298.15 K, 101 kPa
Settings	viscosity [mPa·s]
x2 = 0.0765	0.525
x2 = 0.157	0.607
x2 = 0.2421	0.702
x2 = 0.3319	0.787
x2 = 0.427	0.893
x2 = 0.5278	1.021
x2 = 0.6349	1.172
x2 = 0.7488	1.373
x2 = 0.8702	1.644

CCN(CC)CCO.Cl + OCC(O)CO
101 kPa, x1 = 0.333
Settings	viscosity [mPa·s]
296.97 K	433.4
298.15 K	513.1
302.02 K	339.9
303.15 K	351.5
306.82 K	263.5
308.15 K	251.3
312.13 K	195.5
313.15 K	182.9
317.31 K	153
318.15 K	138
322.61 K	110.5
323.15 K	104.2

BrC(Br)Br + OCCCl
viscosity [mPa·s], 101.3 kPa
Settings	x1 = 0.099	x1 = 0.198	x1 = 0.301	x1 = 0.396	x1 = 0.498	x1 = 0.595	x1 = 0.702	x1 = 0.801	x1 = 0.896
298.15 K	2.878	2.817	2.587	2.446	2.3	2.179	2.067	1.97	1.915
303.15 K	2.532	2.487	2.297	2.191	2.08	1.982	1.89	1.825	1.779
308.15 K	2.237	2.21	2.055	1.974	1.884	1.814	1.746	1.694	1.666

CCN(CC)CCO.Cl + OCCO
viscosity [mPa·s], 101 kPa
Settings	293.15 K	298.15 K	303.15 K	308.15 K	313.15 K	318.15 K	323.15 K
x1 = 0.25	37.6	–	29.6	–	23.6	–	19.1
x1 = 0.333	–	50.45	40.68	32.04	26.28	21.97	18.51

CCN(CC)CCO.Cl + OCCOCCO
101 kPa, x2 = 0.75
Settings	viscosity [mPa·s]
293.15 K	56.09
303.15 K	50.09
313.15 K	35.93
323.15 K	25.49
